Assay results taken from PMC12397098, “3-Monothiopomalidomide, a new immunomodulatory imide drug (IMiD), blunts inflammation and mitigates ischemic stroke in the rat” (GeroScience, 2025).

Tests used:
Test in all cases: PDSP radioligand binding
Details in all cases: read-out: 3-MP concentration required to induce 50% inhibition of PDSP radioligand binding
[1] = target: T1, Adrenergic Beta1 receptor (Homo sapiens, UniProt P08588)
T1 construct: NIMH Psychoactive Drug Screening Program (PDSP)
Protocol: (§1) To evaluate potential binding at classical neurological drug targets, 3-MP and 3,6’-DP were submitted to the National Institute on Mental Health (NIMH) Psychoactive Drug Screening Program (PDSP: Univ. N Carolina, Chapel Hill, NC, USA < https://pdspdb.unc.edu/pdspweb/ >) as powdered samples in the provided vials. The materials were then prepared at the PDSP in 10% DMSO, subjected to multiple assay screens, and processed as per the PDSP Assay Protocol Book (Version 3, March 2018). Compounds that exceeded an initial 10 uM binding threshold were then delegated for secondary dose–response analysis. This screen comprised a 45-target comprehensive panel of common brain receptor and transporter drug targets.

[2] = target: κ-opioid receptor (Homo sapiens, UniProt P41145)
Protocol: as §1

[3] = target: T2, Benzodiazepine PBR receptor (Rattus norvegicus, UniProt P16257)
T2 construct: NIMH Psychoactive Drug Screening Program (PDSP)
Protocol: as §1

[4] = target: Dopamine D4 receptor (Homo sapiens, UniProt P21917)
Protocol: as §1

[5] = target: T3, Adrenergic Alpha1B receptor (Homo sapiens, UniProt P35368)
T3 construct: NIMH Psychoactive Drug Screening Program (PDSP)
T3 sequence (P35368 whole entry): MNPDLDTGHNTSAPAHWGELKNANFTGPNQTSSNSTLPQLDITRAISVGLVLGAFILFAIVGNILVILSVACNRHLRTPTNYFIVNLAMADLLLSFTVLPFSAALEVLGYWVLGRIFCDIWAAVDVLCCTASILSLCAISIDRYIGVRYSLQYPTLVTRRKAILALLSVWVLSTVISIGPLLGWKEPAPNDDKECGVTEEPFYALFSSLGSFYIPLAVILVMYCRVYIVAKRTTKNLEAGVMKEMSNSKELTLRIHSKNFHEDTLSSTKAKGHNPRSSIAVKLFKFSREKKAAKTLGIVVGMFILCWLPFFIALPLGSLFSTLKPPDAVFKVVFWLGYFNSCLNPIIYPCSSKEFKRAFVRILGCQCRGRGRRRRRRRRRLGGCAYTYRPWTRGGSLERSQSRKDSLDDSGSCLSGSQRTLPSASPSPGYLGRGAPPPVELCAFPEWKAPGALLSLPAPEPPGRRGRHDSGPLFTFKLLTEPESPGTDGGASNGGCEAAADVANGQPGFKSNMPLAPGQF
Protocol: as §1

[6] = target: Histamine H4 receptor (Homo sapiens, UniProt Q9H3N8)
Protocol: as §1

[7] = target: T4, Adrenergic Alpha2B receptor (Homo sapiens, UniProt P18089)
T4 construct: NIMH Psychoactive Drug Screening Program (PDSP)
Protocol: as §1

[8] = target: T5, Serotonin 5-HT6 receptor (Homo sapiens, UniProt P50406)
T5 construct: NIMH Psychoactive Drug Screening Program (PDSP)
Protocol: as §1

[9] = target: T6, Dopamine D1 receptor (Homo sapiens, UniProt P21728)
T6 construct: NIMH Psychoactive Drug Screening Program (PDSP)
T6 sequence (P21728 whole entry): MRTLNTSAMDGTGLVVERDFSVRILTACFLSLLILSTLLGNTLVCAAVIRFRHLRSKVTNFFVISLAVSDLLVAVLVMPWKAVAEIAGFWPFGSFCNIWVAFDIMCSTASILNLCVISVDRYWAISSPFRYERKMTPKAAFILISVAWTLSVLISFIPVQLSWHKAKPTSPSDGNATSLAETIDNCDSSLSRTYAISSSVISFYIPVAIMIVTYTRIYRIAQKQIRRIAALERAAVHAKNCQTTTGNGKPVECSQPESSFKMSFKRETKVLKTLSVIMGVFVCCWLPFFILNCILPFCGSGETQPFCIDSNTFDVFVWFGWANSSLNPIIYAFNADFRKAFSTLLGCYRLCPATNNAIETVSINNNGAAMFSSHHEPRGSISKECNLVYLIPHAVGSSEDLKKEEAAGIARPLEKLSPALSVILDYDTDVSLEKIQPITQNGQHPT
Protocol: as §1

[10] = target: T7, Serotonin 5-HT1E receptor (Homo sapiens, UniProt P28566)
T7 construct: NIMH Psychoactive Drug Screening Program (PDSP)
T7 sequence (P28566 whole entry): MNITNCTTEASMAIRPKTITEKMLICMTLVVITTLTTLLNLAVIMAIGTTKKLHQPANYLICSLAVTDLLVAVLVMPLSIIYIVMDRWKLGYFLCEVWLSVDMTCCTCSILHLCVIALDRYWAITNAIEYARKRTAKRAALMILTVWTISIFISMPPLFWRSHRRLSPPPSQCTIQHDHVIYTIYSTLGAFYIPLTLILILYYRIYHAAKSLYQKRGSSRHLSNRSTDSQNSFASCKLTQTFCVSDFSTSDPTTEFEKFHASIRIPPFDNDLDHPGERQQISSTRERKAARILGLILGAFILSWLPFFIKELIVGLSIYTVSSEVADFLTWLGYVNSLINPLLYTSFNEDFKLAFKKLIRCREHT
Protocol: as §1

[11] = target: Muscarinic M3 receptor (Homo sapiens, UniProt P20309)
Protocol: as §1

[12] = target: T8, Dopamine D2 receptor (Homo sapiens, UniProt P14416)
T8 construct: NIMH Psychoactive Drug Screening Program (PDSP)
T8 sequence (P14416 whole entry): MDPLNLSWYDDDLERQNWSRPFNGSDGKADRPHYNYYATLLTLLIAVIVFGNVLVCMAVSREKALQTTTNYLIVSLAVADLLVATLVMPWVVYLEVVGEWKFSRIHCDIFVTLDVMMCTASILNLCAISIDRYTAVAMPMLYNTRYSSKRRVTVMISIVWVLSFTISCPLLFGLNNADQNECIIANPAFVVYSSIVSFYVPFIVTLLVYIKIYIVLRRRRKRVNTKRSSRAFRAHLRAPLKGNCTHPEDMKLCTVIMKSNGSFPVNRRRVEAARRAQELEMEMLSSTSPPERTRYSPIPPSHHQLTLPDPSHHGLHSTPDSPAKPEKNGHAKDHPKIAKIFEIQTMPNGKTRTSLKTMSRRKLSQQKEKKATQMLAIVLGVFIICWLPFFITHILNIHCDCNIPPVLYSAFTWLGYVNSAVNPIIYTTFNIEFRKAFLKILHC
Protocol: as §1

[13] = target: NET transporter (Homo sapiens, UniProt P23975)
Protocol: as §1

[14] = target: μ-opioid receptor (Homo sapiens, UniProt P35372)
Protocol: as §1

[15] = target: Sigma 2 receptor (Rattus norvegicus, UniProt Q5U3Y7)
Protocol: as §1

[16] = target: T9, Adrenergic Beta2 receptor (Homo sapiens, UniProt P07550)
T9 construct: NIMH Psychoactive Drug Screening Program (PDSP)
T9 sequence (P07550 whole entry): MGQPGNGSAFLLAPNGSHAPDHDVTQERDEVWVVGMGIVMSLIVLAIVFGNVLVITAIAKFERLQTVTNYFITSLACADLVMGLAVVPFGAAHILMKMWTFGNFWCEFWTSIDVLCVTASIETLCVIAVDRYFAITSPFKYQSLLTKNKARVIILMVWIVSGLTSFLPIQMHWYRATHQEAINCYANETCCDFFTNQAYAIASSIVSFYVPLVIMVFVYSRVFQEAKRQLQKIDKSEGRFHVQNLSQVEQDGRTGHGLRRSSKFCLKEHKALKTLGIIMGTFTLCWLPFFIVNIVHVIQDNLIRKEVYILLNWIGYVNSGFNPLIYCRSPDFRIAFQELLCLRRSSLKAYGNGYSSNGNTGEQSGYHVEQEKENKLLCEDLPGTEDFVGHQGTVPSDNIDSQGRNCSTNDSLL
Protocol: as §1

[17] = target: T10, Serotonin 5-HT3 receptor (Homo sapiens, UniProt P46098)
T10 construct: NIMH Psychoactive Drug Screening Program (PDSP)
Protocol: as §1

[18] = target: T11, Serotonin 5-HT2A receptor (Homo sapiens, UniProt P28223)
T11 construct: NIMH Psychoactive Drug Screening Program (PDSP)
Protocol: as §1

[19] = target: DAT transporter (Homo sapiens, UniProt Q01959)
DAT transporter, sequence (Q01959 whole entry): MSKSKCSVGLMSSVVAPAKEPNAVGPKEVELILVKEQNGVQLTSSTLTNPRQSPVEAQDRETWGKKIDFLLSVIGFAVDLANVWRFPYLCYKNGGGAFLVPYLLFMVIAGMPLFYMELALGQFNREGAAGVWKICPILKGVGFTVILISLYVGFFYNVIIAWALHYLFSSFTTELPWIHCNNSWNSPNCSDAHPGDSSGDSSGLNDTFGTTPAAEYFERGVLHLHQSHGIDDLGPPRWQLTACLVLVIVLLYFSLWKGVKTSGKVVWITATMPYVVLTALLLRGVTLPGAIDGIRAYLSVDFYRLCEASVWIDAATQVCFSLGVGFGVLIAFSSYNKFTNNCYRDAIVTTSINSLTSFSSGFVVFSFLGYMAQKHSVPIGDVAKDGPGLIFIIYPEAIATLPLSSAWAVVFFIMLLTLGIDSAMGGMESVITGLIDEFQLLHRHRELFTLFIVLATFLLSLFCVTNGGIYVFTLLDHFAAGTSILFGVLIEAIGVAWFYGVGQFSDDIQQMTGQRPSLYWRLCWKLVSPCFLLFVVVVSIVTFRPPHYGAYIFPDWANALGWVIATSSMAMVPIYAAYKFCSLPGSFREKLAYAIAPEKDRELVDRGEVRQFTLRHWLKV
Protocol: as §1

[20] = target: T12, Adrenergic Beta3 receptor (Homo sapiens, UniProt P13945)
T12 construct: NIMH Psychoactive Drug Screening Program (PDSP)
T12 sequence (P13945 whole entry): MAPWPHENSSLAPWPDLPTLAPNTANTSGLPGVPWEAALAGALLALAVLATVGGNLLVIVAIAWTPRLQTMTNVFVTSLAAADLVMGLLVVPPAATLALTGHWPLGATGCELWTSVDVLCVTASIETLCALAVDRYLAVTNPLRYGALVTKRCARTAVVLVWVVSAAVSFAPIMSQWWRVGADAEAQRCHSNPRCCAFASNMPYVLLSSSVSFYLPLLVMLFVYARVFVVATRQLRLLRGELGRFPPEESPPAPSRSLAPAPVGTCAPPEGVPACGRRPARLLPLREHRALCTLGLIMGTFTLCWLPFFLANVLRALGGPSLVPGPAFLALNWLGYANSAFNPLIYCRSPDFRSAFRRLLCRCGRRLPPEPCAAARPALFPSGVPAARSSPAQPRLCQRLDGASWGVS
Protocol: as §1

[21] = target: T13, Serotonin 5-HT2C receptor (Homo sapiens, UniProt P28335)
T13 construct: NIMH Psychoactive Drug Screening Program (PDSP)
Protocol: as §1

[22] = target: Histamine H2 receptor (Homo sapiens, UniProt P25021)
Protocol: as §1

[23] = target: Histamine H1 receptor (Homo sapiens, UniProt P35367)
Protocol: as §1

[24] = target: δ-opioid receptor (Homo sapiens, UniProt P41143)
Protocol: as §1

[25] = target: Dopamine D5 receptor (Homo sapiens, UniProt P21918)
Protocol: as §1

[26] = target: T14, Serotonin 5-HT7A receptor (Homo sapiens, UniProt P34969)
T14 construct: NIMH Psychoactive Drug Screening Program (PDSP)
Protocol: as §1

[27] = target: T15, Adrenergic Alpha1A receptor (Homo sapiens, UniProt P35348)
T15 construct: NIMH Psychoactive Drug Screening Program (PDSP)
Protocol: as §1

[28] = target: Muscarinic M4 receptor (Homo sapiens, UniProt P08173)
Muscarinic M4 receptor, sequence (P08173 whole entry): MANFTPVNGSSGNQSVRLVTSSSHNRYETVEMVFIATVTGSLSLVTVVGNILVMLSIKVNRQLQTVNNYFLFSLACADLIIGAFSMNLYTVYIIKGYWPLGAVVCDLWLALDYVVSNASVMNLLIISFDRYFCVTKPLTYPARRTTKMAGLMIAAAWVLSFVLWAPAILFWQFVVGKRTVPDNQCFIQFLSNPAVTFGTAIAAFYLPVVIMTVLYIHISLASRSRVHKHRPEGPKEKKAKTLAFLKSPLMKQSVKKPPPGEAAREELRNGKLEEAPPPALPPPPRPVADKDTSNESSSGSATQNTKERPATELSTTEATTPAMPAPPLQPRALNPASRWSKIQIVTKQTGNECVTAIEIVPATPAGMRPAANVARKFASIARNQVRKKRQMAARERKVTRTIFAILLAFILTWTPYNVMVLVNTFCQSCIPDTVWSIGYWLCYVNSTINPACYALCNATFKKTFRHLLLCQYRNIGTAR
Protocol: as §1

[29] = target: T16, Serotonin 5-HT2B receptor (Homo sapiens, UniProt P41595)
T16 construct: NIMH Psychoactive Drug Screening Program (PDSP)
Protocol: as §1

[30] = target: Muscarinic M1 receptor (Homo sapiens, UniProt P11229)
Protocol: as §1

[31] = target: T17, Adrenergic Alpha1D receptor (Homo sapiens, UniProt P25100)
T17 construct: NIMH Psychoactive Drug Screening Program (PDSP)
Protocol: as §1

[32] = target: T18, Serotonin 5-HT1D receptor (Homo sapiens, UniProt P28221)
T18 construct: NIMH Psychoactive Drug Screening Program (PDSP)
T18 sequence (P28221 whole entry): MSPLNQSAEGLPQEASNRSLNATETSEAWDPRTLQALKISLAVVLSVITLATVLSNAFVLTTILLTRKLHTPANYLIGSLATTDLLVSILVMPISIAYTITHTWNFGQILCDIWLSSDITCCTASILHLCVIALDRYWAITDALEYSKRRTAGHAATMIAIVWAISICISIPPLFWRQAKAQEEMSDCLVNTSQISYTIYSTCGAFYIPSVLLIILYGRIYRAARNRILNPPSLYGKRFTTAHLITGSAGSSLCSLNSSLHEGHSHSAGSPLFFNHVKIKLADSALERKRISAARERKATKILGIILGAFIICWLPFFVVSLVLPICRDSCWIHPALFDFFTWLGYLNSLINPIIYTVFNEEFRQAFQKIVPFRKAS
Protocol: as §1

[33] = target: Muscarinic M5 receptor (Homo sapiens, UniProt P08912)
Protocol: as §1

[34] = target: Dopamine D3 receptor (Homo sapiens, UniProt P35462)
Protocol: as §1

[35] = target: T19, Serotonin 5-HT1B receptor (Homo sapiens, UniProt P28222)
T19 construct: NIMH Psychoactive Drug Screening Program (PDSP)
T19 sequence (P28222 whole entry): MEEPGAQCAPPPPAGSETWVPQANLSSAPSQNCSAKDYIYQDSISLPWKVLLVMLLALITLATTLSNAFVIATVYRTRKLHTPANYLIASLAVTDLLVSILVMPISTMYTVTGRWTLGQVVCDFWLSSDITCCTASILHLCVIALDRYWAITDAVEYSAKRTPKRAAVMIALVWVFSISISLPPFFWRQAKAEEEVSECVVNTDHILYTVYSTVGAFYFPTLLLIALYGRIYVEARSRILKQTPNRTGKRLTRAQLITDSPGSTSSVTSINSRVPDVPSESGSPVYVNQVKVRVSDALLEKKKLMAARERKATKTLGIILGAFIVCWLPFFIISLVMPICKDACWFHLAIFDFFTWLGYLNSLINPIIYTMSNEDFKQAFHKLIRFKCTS
Protocol: as §1

[36] = target: Benzodiazepine BZP receptor
Protocol: as §1

[37] = target: GABAA receptor
Protocol: as §1

[38] = target: SERT transporter (Homo sapiens, UniProt P31645)
Protocol: as §1

[39] = target: T20, Serotonin 5-HT5A receptor (Homo sapiens, UniProt P47898)
T20 construct: NIMH Psychoactive Drug Screening Program (PDSP)
Protocol: as §1

Measured: IC50

T1 sequence (P08588 whole entry): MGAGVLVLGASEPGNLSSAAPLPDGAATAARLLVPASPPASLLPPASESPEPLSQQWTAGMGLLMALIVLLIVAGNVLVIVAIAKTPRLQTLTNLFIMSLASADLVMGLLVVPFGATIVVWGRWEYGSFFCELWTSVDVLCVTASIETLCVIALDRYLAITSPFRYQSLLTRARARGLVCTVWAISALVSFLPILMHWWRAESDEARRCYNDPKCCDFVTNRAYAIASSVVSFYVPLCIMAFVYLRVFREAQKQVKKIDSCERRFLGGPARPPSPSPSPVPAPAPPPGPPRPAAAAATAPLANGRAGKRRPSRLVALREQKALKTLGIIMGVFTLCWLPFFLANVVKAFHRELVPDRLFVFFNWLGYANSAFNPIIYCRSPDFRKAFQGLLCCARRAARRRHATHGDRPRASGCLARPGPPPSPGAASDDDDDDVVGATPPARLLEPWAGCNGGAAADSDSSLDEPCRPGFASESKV

Nc1cccc2c1C(=S)N(C1CCC(=O)NC1=O)C2=O (stereo not drawn) [3-MP, 3-Monothiopomalidomide]
> 10 µM: all assays above
